This note sets out measurements from PubChem BioAssay (NCI).

Experiment in all cases: inhibition of tumour cell growth, NCI panel, 48 h
For test [1], the system named is ACHN renal.
In test [2] the test system is HCC-2998 colon.
Test [3] relates to HL-60(TB) leukemia.
Test [4] has as its system HOP-62 NSCLC.
The subject of test [5] is MDA-MB-231 breast.
Test [6] deals with OVCAR-3 ovarian.
Test [7] deals with SK-MEL-5 melanoma.
In test [8] the test system is UO-31 renal.

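Cultured in 96-well plates, cells were exposed to test compound for 48 hours across five concentrations. GI50 is the concentration that inhibits growth by half. At the TGI there is no net growth.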

`CC(C(=O)O)c1ccc(-c2ccccc2)c(F)c1` (stereo unspecified): the TGI in test [1], in test [2], in test [3], in test [4], in test [5] and in test [6] was over 100000 nM in each case. Moreover, the TGI in test [7] and in test [8] was over 100000 nM each time.
As for `CC(C)(C)n1cc(-c2ccnc(NCCCNS(=O)(=O)c3ccc(Br)cc3)c2)c(-c2cccc(O)c2)n1`, the GI50 is 1990 nM in test [1]; 1920 nM in test [2]; 2720 nM in test [3]; 2050 nM in test [4]; 1740 nM in test [5]; 2150 nM in test [6]. Also, the GI50 was 1520 nM in test [7] and 1660 nM in test [8]. Besides, the TGI in test [1] worked out at 3890 nM; in test [2], 3480 nM; in test [3], 7490 nM; in test [4], 4200 nM; in test [5], 3390 nM; in test [6] it was 4150 nM. Besides, the TGI in test [7] stood at 2870 nM; in test [8], 3890 nM.
Take `N=c1ccc2nc3c(cc(N)c4ccccc43)oc-2c1`: the GI50 was 325 nM in test [1]; 380 nM in test [2]; 147 nM in test [3]; 267 nM in test [4]; 179 nM in test [5]; 26.5 nM in test [6]. Further, the results for the GI50 in test [7] and in test [8] were 144 nM and 333 nM, respectively. The TGI in test [1] was 1440 nM; in test [2], 1310 nM; in test [3] it was 733 nM; in test [4] it was 798 nM; in test [5], 1210 nM; in test [6], 83.4 nM. Besides, the results for the TGI in test [7] and in test [8] were 277 nM and 958 nM, respectively.
Consider `CC(=O)c1cc(-c2ccccc2N)n(-c2ccc3c(c2)OCO3)c1C`, for which the GI50 in test [1] is 398 nM; in test [2], 304 nM; in test [3], 217 nM; in test [4], 435 nM; in test [5], 134 nM; in test [6], 66 nM. Besides, the values for the GI50 in test [7] and in test [8] were 196 nM and 696 nM, respectively. The TGI in test [1] is over 100000 nM; in test [2], 16300 nM; in test [3] it was 592 nM; in test [4], over 100000 nM; in test [5], over 77000 nM; in test [6] it was 537 nM. The TGI in test [7] was 1590 nM; in test [8] it was 45500 nM.
On to `CCCCNC(=O)Oc1ccc(/C(=C(/CC)Cc2ccccc2)c2ccc(OCCN3CCCCCC3)cc2)cc1`, for which the GI50 in test [1] is 18600 nM; in test [2], 18800 nM; in test [3], 16500 nM; in test [4], 70800 nM; in test [5], 19200 nM; in test [6] it was 19900 nM. Also, the GI50 in test [7] is 19900 nM; in test [8], 18900 nM. Further, the TGI in test [1] was 41600 nM; in test [2], 38800 nM; in test [3], 40000 nM; in test [4] it was over 100000 nM; in test [5], 36600 nM; in test [6] it was 42600 nM. Moreover, the TGI in test [7] is 39100 nM; in test [8], 46300 nM.
With `CC(=O)c1cccc(-c2cccc(-c3ccn(CCN4CCOCC4)n3)c2)c1`, the GI50 in test [1], in test [2], in test [3], in test [4], in test [5] and in test [6] was over 20000 nM in each case. For the same compound, the GI50 is 11600 nM in test [7] and over 20000 nM in test [8]. The TGI in test [1], in test [2], in test [3], in test [4], in test [5] and in test [6] was over 20000 nM in each case. In addition, the TGI in test [7] and in test [8] was over 20000 nM throughout.
For `O=C(Nc1ccc(Br)cc1)Nc1nn(C(=O)Nc2ccc(Br)cc2)c2ccccc12`, the GI50 in test [1] is 61900 nM; in test [2], over 100000 nM; in test [3], 12000 nM; in test [4], 26400 nM; in test [5], 27200 nM; in test [6], 33900 nM. For the same compound, the GI50 in test [7] and in test [8] was over 100000 nM throughout. The TGI in test [1] was over 100000 nM; in test [2], over 100000 nM; in test [3], over 32200 nM; in test [4], over 72800 nM; in test [5], over 100000 nM; in test [6], over 77600 nM. For the same compound, the TGI in test [7] and in test [8] was over 100000 nM each time.
Consider `CNCCNc1nc2ccccc2c2c(=O)c3cc(OC)ccc3sc12`, for which the GI50 is 1580 nM in test [1]; 1470 nM in test [2]; 1900 nM in test [3]; 1490 nM in test [4]; 1540 nM in test [5]; 1840 nM in test [6]. Besides, the GI50 in test [7] was 1710 nM; in test [8], 1290 nM. Also, the TGI in test [1] amounted to 2930 nM; in test [2], 2900 nM; in test [3], 3600 nM; in test [4], 3220 nM; in test [5] it was 3080 nM; in test [6], 3430 nM. The figures for the TGI in test [7] and in test [8] were 3090 nM and 2600 nM, respectively.
On to `CC12CC=CCC1CCC1C2CCC2(C)C(c3ccc(=O)oc3)CCC12O` (stereo unspecified), for which the GI50 in test [1] was 36.9 nM; in test [2] it was 374 nM; in test [3] it was 27.2 nM; in test [4] it was 45.9 nM; in test [5], 336 nM; in test [6], 56.6 nM. Besides, the figures for the GI50 in test [7] and in test [8] were 63.3 nM and 98.8 nM, respectively. Moreover, the TGI was 138 nM in test [1]; 3370 nM in test [2]; 73.2 nM in test [3]; 201 nM in test [4]; 1640 nM in test [5]; 282 nM in test [6]. In addition, the TGI was 312 nM in test [7] and 225 nM in test [8].
